Holding throughout (type): biochemical
In experiment [1] the target is T1, recombinant human DAO (diamine oxidase) (Homo sapiens, UniProt P19801).
T1 construct: purchased R&D systems
T1 sequence (P19801 20-751): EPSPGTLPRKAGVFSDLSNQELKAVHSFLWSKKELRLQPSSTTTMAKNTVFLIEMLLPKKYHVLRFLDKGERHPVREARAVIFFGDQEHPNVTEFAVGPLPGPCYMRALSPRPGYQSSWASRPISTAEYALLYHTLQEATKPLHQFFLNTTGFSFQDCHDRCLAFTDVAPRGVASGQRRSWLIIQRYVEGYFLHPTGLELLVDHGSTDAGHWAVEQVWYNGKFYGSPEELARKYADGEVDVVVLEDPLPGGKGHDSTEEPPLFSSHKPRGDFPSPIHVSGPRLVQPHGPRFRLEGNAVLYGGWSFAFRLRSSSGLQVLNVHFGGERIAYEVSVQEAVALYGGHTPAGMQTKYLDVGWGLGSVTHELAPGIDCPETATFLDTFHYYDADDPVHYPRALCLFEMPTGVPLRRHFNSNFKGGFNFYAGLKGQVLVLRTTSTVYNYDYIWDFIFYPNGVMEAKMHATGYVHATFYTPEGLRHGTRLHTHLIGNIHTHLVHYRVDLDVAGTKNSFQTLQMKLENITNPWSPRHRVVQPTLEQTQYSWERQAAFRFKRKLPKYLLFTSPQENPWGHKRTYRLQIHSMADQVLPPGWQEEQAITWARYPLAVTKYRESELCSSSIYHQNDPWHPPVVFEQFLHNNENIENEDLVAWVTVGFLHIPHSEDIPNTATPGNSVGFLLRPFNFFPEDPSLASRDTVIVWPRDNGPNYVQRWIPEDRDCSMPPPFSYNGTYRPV
The experiment in a line: Activity on recombinant human DAO, method similar to the VAP-1 assay. The note with it: substrate 1 mM putrescine; read-out: Inhibitory Activity (IC50, nM) DAO. The method, boiled down: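 Inhibition of recombinant human diamine oxidase (DAO, R&D systems) was assessed by the same approach as the VAP-1 assay, using 1 mM putrescine as substrate. Hydrogen peroxide formed was detected through an HRP-coupled Amplex Red reaction yielding fluorescent resorufin, read at 544 nm excitation and 590 nm emission. IC50 values came from four-parameter logistic fitting in GraphPad Prism.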

The target in another experiment is T2, recombinant human VAP-1 (Homo sapiens, UniProt Q16853).
T2 construct: purchased R&D systems
T2 sequence (Q16853 1-763): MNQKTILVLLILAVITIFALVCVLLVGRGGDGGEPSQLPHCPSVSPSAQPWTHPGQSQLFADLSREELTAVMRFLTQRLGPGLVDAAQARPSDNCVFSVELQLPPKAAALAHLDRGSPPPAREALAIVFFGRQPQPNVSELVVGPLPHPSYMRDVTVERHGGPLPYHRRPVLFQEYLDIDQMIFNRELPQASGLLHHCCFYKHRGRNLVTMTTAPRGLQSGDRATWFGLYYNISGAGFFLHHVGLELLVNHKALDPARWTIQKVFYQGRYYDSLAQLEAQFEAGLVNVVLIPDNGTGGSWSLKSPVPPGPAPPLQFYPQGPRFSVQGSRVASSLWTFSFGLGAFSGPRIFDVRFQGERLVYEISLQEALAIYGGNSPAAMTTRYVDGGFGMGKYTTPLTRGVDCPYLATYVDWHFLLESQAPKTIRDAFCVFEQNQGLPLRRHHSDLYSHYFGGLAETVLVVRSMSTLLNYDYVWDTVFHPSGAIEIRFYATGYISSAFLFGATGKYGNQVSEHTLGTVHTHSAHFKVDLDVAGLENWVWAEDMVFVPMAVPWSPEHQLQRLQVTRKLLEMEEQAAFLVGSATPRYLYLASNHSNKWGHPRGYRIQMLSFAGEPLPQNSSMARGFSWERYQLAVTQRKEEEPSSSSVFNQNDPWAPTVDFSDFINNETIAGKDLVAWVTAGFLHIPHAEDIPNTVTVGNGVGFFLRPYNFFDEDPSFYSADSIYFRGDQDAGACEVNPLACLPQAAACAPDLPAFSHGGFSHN
The experiment is described as follows: Activity on recombinant human VAP-1, HRP-coupled Amplex Red hydrogen peroxide assay. As to conditions: substrate 1 mM benzylamine; compound incubated with enzyme at 37° C. for 30 minutes; pH 7.4; read-out: Inhibitory Activity (IC50, nM) human VAP-1. The method, boiled down: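 Dose-response IC50 determined from reduction in resorufin signal rate (544/590 nm, 1-2 h), with 30 min compound preincubation at 37 °C and 1 mM benzylamine as substrate.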

Experiment [2] addresses T3, recombinant human MAO-B (monoamine oxidase-B) (Homo sapiens, UniProt P27338).
T3 construct: purchased Sigma-Aldrich
T3 sequence (P27338 1-520): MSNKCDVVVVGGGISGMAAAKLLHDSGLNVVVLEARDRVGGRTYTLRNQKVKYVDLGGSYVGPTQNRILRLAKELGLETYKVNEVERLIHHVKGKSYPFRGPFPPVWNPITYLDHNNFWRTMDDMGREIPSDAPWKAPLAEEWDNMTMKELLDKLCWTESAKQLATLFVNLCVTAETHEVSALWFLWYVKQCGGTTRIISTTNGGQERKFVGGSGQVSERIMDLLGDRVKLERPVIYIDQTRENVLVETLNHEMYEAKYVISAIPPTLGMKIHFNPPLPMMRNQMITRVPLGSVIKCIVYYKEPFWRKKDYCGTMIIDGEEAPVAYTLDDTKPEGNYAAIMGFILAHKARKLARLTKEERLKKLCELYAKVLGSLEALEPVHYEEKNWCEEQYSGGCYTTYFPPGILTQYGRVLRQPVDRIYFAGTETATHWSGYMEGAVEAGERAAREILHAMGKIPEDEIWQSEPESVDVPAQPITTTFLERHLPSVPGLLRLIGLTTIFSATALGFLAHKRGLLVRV
The experiment in a line: Activity on recombinant human MAO-B, method similar to the VAP-1 assay. The note with it: substrate 1 mM benzylamine; read-out: Inhibitory Activity (IC50, nM) MAO-B. The method in brief:
(§1)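 Amplex Red/HRP coupled read-out of H2O2 with 0.5 mM tyramine for MAO-A or 1 mM benzylamine for MAO-B, following a 30-min compound–enzyme preincubation at 37° C. IC50 from percent inhibition of signal rate relative to uninhibited control.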

Experiment [3] deals with T4, recombinant human MAO-A (monoamine oxidase-A) (Homo sapiens, UniProt P21397).
T4 construct: purchased Sigma-Aldrich
T4 sequence (P21397 1-527): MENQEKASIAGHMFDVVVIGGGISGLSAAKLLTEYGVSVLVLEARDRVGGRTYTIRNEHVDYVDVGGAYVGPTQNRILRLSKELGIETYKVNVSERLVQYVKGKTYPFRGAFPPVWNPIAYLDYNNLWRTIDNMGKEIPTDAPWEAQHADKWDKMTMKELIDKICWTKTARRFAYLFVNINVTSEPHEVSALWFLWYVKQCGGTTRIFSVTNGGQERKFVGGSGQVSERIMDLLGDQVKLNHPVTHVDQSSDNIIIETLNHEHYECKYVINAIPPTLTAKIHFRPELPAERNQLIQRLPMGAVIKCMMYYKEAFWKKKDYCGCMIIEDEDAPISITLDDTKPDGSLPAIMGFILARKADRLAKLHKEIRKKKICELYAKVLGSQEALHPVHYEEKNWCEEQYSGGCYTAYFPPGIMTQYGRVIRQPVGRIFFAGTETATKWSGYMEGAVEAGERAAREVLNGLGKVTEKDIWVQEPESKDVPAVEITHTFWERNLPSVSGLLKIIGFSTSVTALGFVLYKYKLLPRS
The experiment is described as follows: Activity on recombinant human MAO-A, method similar to the VAP-1 assay. As to conditions: substrate 0.5 mM tyramine; read-out: Inhibitory Activity (IC50, nM) MAO-A. The method in brief:
as §1

SMILES strings stand for the structures. Structures can show the parent of a compound that is named as a salt.

As a reminder, the IC50 is the concentration that gives 50% inhibition.

For the compound `NC/C(=C\F)Cn1ncn(Cc2ccc(-c3ccc(N4CCCC4)cc3)s2)c1=O` [Example 20, 2-[(2E)-2-(aminomethyl)-3-fluoroprop-2-en-1-yl]-4-(5-[4-(pyrrolidin-1-yl)phenyl]thiophen-2-ylmethyl)-2,4-dihydro-3H-1,2,4-triazol-3-one hydrochloride], the concentration for half-maximal inhibition (IC50) in experiment [1] worked out at 2700 nM; on recombinant human VAP-1, 5 nM; in experiment [2] it was 730 nM; in experiment [3], 6600 nM.
The matching figures for `Cc1c(-c2ccc(Cn3cnn(C/C(=C/F)CN)c3=O)s2)ccc2c1NCCO2` [Example 108, 2-[(E)-2-(aminomethyl)-3-fluoro-allyl]-4-[[5-(5-methyl-3,4-dihydro-2H-1,4-benzoxazin-6-yl)-2-thienyl]methyl]-1,2,4-triazol-3-one]: 250 nM, 0.8 nM, 3200 nM and 21000 nM.
In the same order, the values of `NC/C(=C\F)Cn1ncn(Cc2ccc(-c3ccc4c(c3)NCCO4)s2)c1=O` [Example 105, 2-[(E)-2-(aminomethyl)-3-fluoro-allyl]-4-[[5-(3,4-dihydro-2H-1,4-benzoxazin-6-yl)-2-thienyl]methyl]-1,2,4-triazol-3-one] are 8500 nM, 1.8 nM, 420 nM and 38400 nM.
The matching figures for `Cn1c(-c2ccc(Cn3cnn(C/C(=C/F)CN)c3=O)s2)cnc1Cl` [Example 154, 2-[(2E)-2-(aminomethyl)-3-fluoroprop-2-en-1-yl]-4-{[5-(2-chloro-1-methyl-1H-imidazol-5-yl)thiophen-2-yl]methyl}-2,4-dihydro-3H-1,2,4-triazol-3-one]: 690 nM, 4.4 nM, 1400 nM and > 100000 nM.
As for `NC/C(=C\F)Cn1ncn(Cc2ccc(Cc3ccc(OC(F)(F)F)cc3)s2)c1=O` [Example 168, 2-[(2E)-2-(aminomethyl)-3-fluoroprop-2-en-1-yl]-4-({5-[4-(trifluoromethoxy)benzyl]thiophen-2-yl}methyl)-2,4-dihydro-3H-1,2,4-triazol-3-one], the IC50 is 4500 nM in experiment [1], 12 nM at recombinant human VAP-1, 340 nM in experiment [2] and > 100000 nM in experiment [3].
In the same order, the values of `NC/C(=C\F)Cn1ncn(Cc2ccc(-c3ccc(-c4noc(C5CC5)n4)cc3)s2)c1=O` [Example 35, 2-[(2E)-2-(aminomethyl)-3-fluoroprop-2-en-1-yl]-4-(5-[4-(5-cyclopropyl-1,2,4-oxadiazol-3-yl)phenyl]thiophen-2-ylmethyl)-2,4-dihydro-3H-1,2,4-triazol-3-one hydrochloride] are 67 nM, 0.89 nM, 247 nM and 39600 nM.
In the same order, the values of `CN1CCNc2cc(-c3ccc(Cn4cnn(C/C(=C/F)CN)c4=O)s3)ccc21` [Example 104, 2-[(E)-2-(aminomethyl)-3-fluoro-allyl]-4-[[5-(1-methyl-3,4-dihydro-2H-quinoxalin-6-yl)-2-thienyl]methyl]-1,2,4-triazol-3-one] are 390 nM, 1.1 nM, 1200 nM and 4000 nM.
The matching figures for `CS(=O)(=O)c1cccc(-c2ccc(Cn3cnn(C/C(=C/F)CN)c3=O)s2)c1` [Example 181, 2-[(2E)-2-(aminomethyl)-3-fluoroprop-2-en-1-yl]-4-({5-[3-(methylsulfonyl)phenyl]thiophen-2-yl}methyl)-2,4-dihydro-3H-1,2,4-triazol-3-one]: 760 nM, 1.5 nM, 250 nM and > 100000 nM.
With `NC/C(=C\F)Cn1ncn(Cc2ccc(-c3ccc(CN4CCOCC4)nc3)s2)c1=O` [Example 145, 2-[(2E)-2-(aminomethyl)-3-fluoroprop-2-en-1-yl]-4-({5-[6-(morpholin-4-ylmethyl)pyridin-3-yl]thiophen-2-yl}methyl)-2,4-dihydro-3H-1,2,4-triazol-3-one], the IC50 is 490 nM in experiment [1], 4.4 nM at recombinant human VAP-1, > 100000 nM in experiment [2] and > 100000 nM in experiment [3].
As to `Cc1cc(-c2ccc(Cn3cnn(C/C(=C/F)CN)c3=O)s2)cc2c1OCC(=O)N2` [Example 91, 6-[5-(1-[(2E)-2-(aminomethyl)-3-fluoroprop-2-en-1-yl]-5-oxo-1,5-dihydro-4H-1,2,4-triazol-4-ylmethyl)thiophen-2-yl]-8-methyl-2H-1,4-benzoxazin-3(4H)-one hydrochloride], the IC50 in experiment [1] is 340 nM; on recombinant human VAP-1, 0.9 nM; in experiment [2] it was 3200 nM; in experiment [3] it was > 10000 nM.
In the same order, the values of `NC/C(=C\F)Cn1ncn(Cc2ccc(-c3cccc4cnccc34)s2)c1=O` [Example 114, 2-[(2E)-2-(aminomethyl)-3-fluoroprop-2-en-1-yl]-4-[5-(isoquinolin-5-yl)thiophen-2-yl]methyl-2,4-dihydro-3H-1,2,4-triazol-3-one hydrochloride] are 110 nM, 0.3 nM, 23 nM and 143000 nM.

(Values after patent publication US11780830B2, “Triazolone derivatives or salts thereof and pharmaceutical compositions comprising the same” (YUHAN CORPORATION, priority 2018, dated 2023).)
